Experiments:
[1] = Repeated-dose toxicity study: hematology; assay type: in vivo, Sprague-Dawley rats; settings: rats
Method: Repeated-dose toxicity and toxicokinetic studies
Repeated-dose oral toxicity study and toxicokinetic (TK) profiling was conducted in Sprague-Dawley rats. ITRI-148 was administered once daily using oral gavage at doses of 100, 300, 600, and 1000 mg/kg/day for 7 consecutive days, followed by a 7-day recovery period. Each dose group comprised 3 animals designated for toxicokinetic (TK) analysis and 6 animals for dose-range finding (DRF) evaluation. Clinical observations, body weights, and food consumption were monitored daily throughout the dosing and recovery periods. […]
All samples were analyzed in duplicate. Hematology and serum clinical chemistry analyses were performed on Day 7 (end of dosing) and Day 14 (end of recovery). […]
All procedures were conducted in compliance with institutional animal care and use guidelines. […]
Targeting androgen receptor and the variants by an orally bioavailable
Proteolysis Targeting Chimeras compound in castration resistant prostate cancer

[2] = tested on: VCaP xenografts; test: Castrated VCaP xenograft study; assay type: in vivo; settings: for tumor growth inhibition (TGI): castrated mice
Excerpt: Immunodifficient male CB-17 SCID mice (CB17/Icr-Prkdc^scid/IcrIcoCrlBltw) and NOD SCID mice (NOD.CB17-Prkdc^scid/NCrCrlBltw) mice at four to six weeks of age were purchased from BioLASCO Taiwan Co., Ilan, Taiwan. All mice were housed in conventional cages in the AAALAC Full Accreditation (2011) in Industrial Technology Research Institute and were allowed to acclimatize and recover from shipping-related stress for one week prior to the study. The health of the mice was monitored by daily observations. Animals were kept in rooms at temperature of 22–26°C with 40–70 % humidity, positive pressure, 60 % air recirculation, ventilation rate 15–20 changes per hour, and a controlled light-dark cycle (12–12 hours). The order and location of each animal cage was randomly assigned to minimize potential confounders. CWR22Rv1 cells (5 × 10^6) were suspended in 100 μL of PBS with 30 % Matrigel and subcutaneously implanted into the right flank of male CB-17 SCID mice. Tumors were measured with calipers, and tumor size was calculated as follows: tumor volume (V) = (L × S^2)/2 (L, longest diameter, mm; S, shortest diameter, mm). When mean tumor volume reached 150–200 mm^3, the mice were randomly assigned into indicated groups (n = 5-6/ group) and the day of initiating treatments was assigned as day 0. VCaP cells (5 × 10⁶) suspended in 50 % Matrigel were subcutaneously implanted into male NOD SCID mice. Once tumors reached approximately 250 mm³, castration surgery was performed. After tumor regression and subsequent regrowth to around 250 mm³, treatment with ITRI-148 was initiated. Oral (PO) gavage was used for the drug administration, including vehicle control and ITRI-148 treatments (7.5 mg/kg, 15 mg/kg, 30 mg/kg, or 60 mg/kg, BID). Tumor size and body weight of the animals were monitored and recorded two to three times per week. Mice were sacrificed when one of the tumor reached over 1000 mm^3 in size. Tumors were collected and immediately subjected to liquid nitrogen freezing and homogenization. The homogenized tumor samples were stored at −80°C for subsequent western blotting analysis. The drug antitumor efficacy was presented as percentages of TGI of each tested animal, calculated as follows: [1 − (final tumor volume ^treated group – initial tumor volume ^treated group) / (final tumor volume ^vehicle group – initial tumor volume ^vehicle group)] × 100. Body weight of each mouse was also compared to that on the first day of treatment (day 0) and expressed as a percentage of day 0 value. All data points were included for calculation and the values are presented as mean ± SEM. Statistical analysis of the differences between two drug and vehicle treated groups was determined by two-tailed Student’s t-test.

[3] = PO 100 mg/kg/day 7 days, Day 14 (recovery)
[4] = PO 300 mg/kg/day 7 days, Day 14 (recovery)
[5] = PO 600 mg/kg/day 7 days, Day 14 (recovery)
[6] = PO 1000 mg/kg/day 7 days, Day 7
[7] = PO 1000 mg/kg/day 7 days, Day 14 (recovery)

SMILES: O=C1CCC(N2C(=O)c3cccc(NCC(=O)N4CCC(N5CCC(C#Cc6ccc(C7CCN(C8=Nn9c(nnc9C(F)(F)F)CC8)CC7)cc6)CC5)CC4)c3C2=O)C(=O)N1 (stereo not drawn) [ITRI-148]
- HGB ([1]; PO 100 mg/kg/day 7 days, Day 7): 20.3 ± 0.2 g/dL
- PLT ([1]; PO 100 mg/kg/day 7 days, Day 7): 915 ± 368 x103 cells/µL
- RBC ([1]; PO 100 mg/kg/day 7 days, Day 7): 7.51 ± 0.13 x106 cells/µL
- WBC ([1]; PO 100 mg/kg/day 7 days, Day 7): 8.72 ± 2.37 x103 cells/µL
- HGB [1, 3]: 21.9 ± 3.2 g/dL
- PLT [1, 3]: 1049 ± 231 x103 cells/µL
- RBC [1, 3]: 8.18 ± 1.17 x106 cells/µL
- WBC [1, 3]: 7.52 ± 5.51 x103 cells/µL
- HGB ([1]; PO 300 mg/kg/day 7 days, Day 7): 20 ± 1.4 g/dL
- PLT ([1]; PO 300 mg/kg/day 7 days, Day 7): 956 ± 108 x103 cells/µL
- RBC ([1]; PO 300 mg/kg/day 7 days, Day 7): 7.15 ± 0.4 x106 cells/µL
- WBC ([1]; PO 300 mg/kg/day 7 days, Day 7): 8.19 ± 2.89 x103 cells/µL
- HGB [1, 4]: 24.1 ± 0.4 g/dL
- PLT [1, 4]: 1128 ± 236 x103 cells/µL
- RBC [1, 4]: 8.91 ± 0.17 x106 cells/µL
- WBC [1, 4]: 9.56 ± 1.57 x103 cells/µL
- HGB ([1]; PO 600 mg/kg/day 7 days, Day 7): 20.6 ± 1.9 g/dL
- PLT ([1]; PO 600 mg/kg/day 7 days, Day 7): 986 ± 252 x103 cells/µL
- RBC ([1]; PO 600 mg/kg/day 7 days, Day 7): 7.51 ± 0.53 x106 cells/µL
- WBC ([1]; PO 600 mg/kg/day 7 days, Day 7): 8.68 ± 4.58 x103 cells/µL
- HGB [1, 5]: 21.6 ± 0.8 g/dL
- PLT [1, 5]: 1022 ± 446 x103 cells/µL
- RBC [1, 5]: 7.87 ± 0.45 x106 cells/µL
- WBC [1, 5]: 5.27 ± 2.39 x103 cells/µL
- HGB [1, 6]: 20.7 ± 1.3 g/dL
- PLT [1, 6]: 892 ± 66 x103 cells/µL
- RBC [1, 6]: 7.52 ± 0.31 x106 cells/µL
- WBC [1, 6]: 7.48 ± 2.72 x103 cells/µL
- HGB [1, 7]: 21.6 ± 1 g/dL
- PLT [1, 7]: 1140 ± 222 x103 cells/µL
- RBC [1, 7]: 8.33 ± 0.35 x106 cells/µL
- WBC [1, 7]: 8.28 ± 0.31 x103 cells/µL
- toxicity reflected by weight-loss of the animals ([2]; PO 7.5-30 mg/kg BID): No toxicity reflected by weight-loss of the animals was observed
- tumor growth inhibition (TGI) ([2]; PO 7.5 mg/kg BID): 49.06%
- tumor growth inhibition (TGI) ([2]; PO 15 mg/kg BID): 95.08%
- tumor growth inhibition (TGI) ([2]; PO 30 mg/kg BID, average): 147.07%

Source: paper PMC12661400, “Oral bioavailable ITRI-148 degrades androgen receptor variants and overcomes antiandrogen resistance in advanced prostate cancer” (Neoplasia (New York, N.Y.), 2025)
